# Measurements reported in patent US8183262B2, “Pyridine derivatives as mGluR2 antagonists” (Hoffmann-La Roche Inc., priority 2007, dated 2012).
row,SMILES,melting point
1,"Cc1cc(-c2ccc(C(F)(F)F)cc2)cc(-c2ccnc(-c3cnc(N)nc3)n2)n1 [Example 240, 4-[6-Methyl-4-(4-trifluoromethyl-phenyl)-pyridin-2-yl]-[2,5′]bipyrimidinyl-2′-ylamine]",264 °C
2,"NS(=O)(=O)c1cccc(-c2noc(-c3nc(-c4ccc(Cl)cc4)cc(C(F)(F)F)n3)n2)c1 [Example 18, 3-{5-[4-(4-Chloro-phenyl)-6-trifluoromethyl-pyrimidin-2-yl]-[1,2,4}oxadiazol-3-yl]-benzenesulfonamide]",231 °C
3,"Cc1nc(-c2ccc(N)nc2)cn1-c1nc(-c2ccc(C(F)(F)F)cc2)cc(C(F)(F)F)n1 [Example 142, 5-{2-Methyl-1-[4-trifluoromethyl-6-(4-trifluoromethyl-phenyl)-pyrimidin-2-yl]-1H-imidazol-4-yl}-pyridin-2-ylamine]",285 °C
4,"Cc1cc(-c2ccc(Cl)c(C)c2)nc(-n2cnc(-c3ccc(S(N)(=O)=O)s3)c2)n1 [Example 225, 5-{1-[4-(4-Chloro-3-methyl-phenyl)-6-methyl-pyrimidin-2-yl]-1H-imidazol-4-yl}-thiophene-2-sulfonic acid amide]",267 °C (dec.)
5,"Nc1ccc(-c2cn(-c3nc(-c4cccc(Cl)c4)cc(C(F)(F)F)n3)cn2)cn1 [Example 186, 5-{1-[4-(3-Chloro-phenyl)-6-trifluoromethyl-pyrimidin-2-yl]-1H-imidazol-4-yl}-pyridin-2-ylamine]",248 °C
6,"Cc1cc(-c2ccc(C#N)cc2)nc(-c2cccc(-c3cccc(S(N)(=O)=O)c3)n2)n1 [Example 442, 3-{6-[4-(4-Cyano-phenyl)-6-methyl-pyrimidin-2-yl]-pyridin-2-yl}-benzenesulfonamide]",255 °C
7,"NS(=O)(=O)c1cccc(-c2cn(-c3nc(-c4ccc(Cl)c(Cl)c4)cc(C(F)(F)F)n3)cn2)c1 [Example 215, 3-{1-[4-(3,4-Dichloro-phenyl)-6-trifluoromethyl-pyrimidin-2-yl]-1H-imidazol-4-yl}-benzenesulfonamide]",239 °C
8,"NS(=O)(=O)c1cccc(-c2cc(-c3nc(-c4ccc(C(F)(F)F)cc4)cc(C(F)(F)F)n3)ccn2)c1 [Example 158, 3-{4-[4-Trifluoromethyl-6-(4-trifluoromethyl-phenyl)-pyrimidin-2-yl]-pyridin-2-yl}-benzenesulfonamide]",237 °C
9,"Nc1ncc(-c2noc(-c3nc(-c4ccc(C(F)(F)F)cc4)cc(C(F)(F)F)n3)n2)cn1 [Example 20, 5-{5-[4-Trifluoromethyl-6-(4-trifluoromethyl-phenyl)-pyrimidin-2-yl]-[1,2,4]oxadiazol-3-yl}-pyrimidin-2-ylamine]",216 °C
10,"NS(=O)(=O)c1cccc(-c2cn(-c3nc(-c4ccc(F)cc4)cc(C(F)(F)F)n3)cn2)c1 [Example 387, 3-{1-[4-(4-Fluoro-phenyl)-6-trifluoromethyl-pyrimidin-2-yl]-1H-imidazol-4-yl}-benzenesulfonamide]",260 °C
11,"NS(=O)(=O)c1ccc(-c2cccc(-c3nc(-c4ccc(C(F)(F)F)cc4)cc(C(F)(F)F)n3)c2)s1 [Example 161, 5-{3-[4-Trifluoromethyl-6-(4-trifluoromethyl-phenyl)-pyrimidin-2-yl]-phenyl}-thiophene-2-sulfonic acid amide]",204 °C
12,"CC(C)(C)NS(=O)(=O)c1cccc(-c2cc(-c3cc(C(F)(F)F)cc(-c4ccc(C(F)(F)F)cc4)n3)ccn2)c1 [Example 285, N-tert-Butyl-3-[4-trifluoromethyl-6-(4-trifluoromethyl-phenyl)-[2,4′]bipyridinyl-2′-yl]-benzenesulfonamide]",196 °C
13,"Cc1cc(-c2cc(C(F)(F)F)nc(-c3cccc(-c4ccc(N)nc4)c3)n2)ccc1C(F)(F)F [Example 119, 5-{3-[4-(3-Methyl-4-trifluoromethyl-phenyl)-6-trifluoromethyl-pyrimidin-2-yl]-phenyl}-pyridin-2-ylamine]",207 °C
14,"Cc1cc(-c2ccc(Cl)cc2)nc(-n2cnc(-c3ccc(S(N)(=O)=O)s3)c2)n1 [Example 190, 5-{1-[4-(4-Chloro-phenyl)-6-methyl-pyrimidin-2-yl]-1H-imidazol-4-yl}-thiophene-2-sulfonic acid amide]",281 °C
15,"Cc1cc(-c2ccc(C(F)(F)F)cc2)cc(-c2cncc(-c3cnc(N)nc3)c2)n1 [Example 68, 5-[6-Methyl-4-(4-trifluoromethyl-phenyl)-[2,3′]bipyridinyl-5′-yl]-pyrimidin-2-ylamine]",248 to 252 °C
16,"Cc1cc(-c2ccc(Cl)c(Cl)c2)nc(-c2ccnc(-c3cccc(S(N)(=O)=O)c3)c2)n1 [Example 194, 3-{4-[4-(3,4-Dichloro-phenyl)-6-methyl-pyrimidin-2-yl]-pyridin-2-yl}-benzenesulfonamide]",202.5 °C
17,"CS(=O)(=O)c1cccc(-c2cccc(-c3nc(-c4ccc(C(F)(F)F)cc4)cc(C(F)(F)F)n3)c2)c1 [Example 219, 2-(3′-Methanesulfonyl-biphenyl-3-yl)-4-trifluoromethyl-6-(4-trifluoromethyl-phenyl)-pyrimidine]",183.5 °C

row,SMILES,melting point
1,"Cc1cc(-c2ccc(Cl)cc2)nc(-c2cccc(-c3cnc(N)nc3)c2)n1 [Example 110, 5-{3-[4-(4-Chloro-phenyl)-6-methyl-pyrimidin-2-yl]-phenyl}-pyrimidin-2-ylamine]",228 °C
2,"NS(=O)(=O)c1cnc(-c2cn(-c3nc(-c4ccc(C(F)(F)F)cc4)cc(C(F)(F)F)n3)cn2)s1 [Example 181, 2-{1-[4-Trifluoromethyl-6-(4-trifluoromethyl-phenyl)-pyrimidin-2-yl]-1H-imidazol-4-yl}-thiazole-5-sulfonic acid amide]",264 °C
3,"Cc1cc(-c2ccc(C(F)(F)F)cc2)cc(-c2cccc(-c3cncc(S(N)(=O)=O)c3)c2)n1 [Example 248, 5-{3-[6-Methyl-4-(4-trifluoromethyl-phenyl)-pyridin-2-yl]-phenyl}-pyridine-3-sulfonic acid amide]",> 250 °C
4,"Cc1cc(-c2ccc(C(F)(F)F)cc2)cc(-c2nc(-c3ccc(S(=O)(=O)NC(C)(C)C)s3)cs2)n1 [Example 324, 5-{2-[6-Methyl-4-(4-trifluoromethyl-phenyl)-pyridin-2-yl]-thiazol-4-yl}-thiophene-2-sulfonic acid tert-butylamide]",171 °C
5,"COc1cc(-c2cc(C)nc(-c3ccnc(-c4ccc(S(=O)(=O)NC(C)(C)C)s4)c3)c2)ccc1C(F)(F)F [Example 339, 5-[4-(3-Methoxy-4-trifluoromethyl-phenyl)-6-methyl-[2,4′]bipyridinyl-2′-yl]-thiophene-2-sulfonic acid tert-butylamide]",209 °C (dec.)
6,"Nc1ccc(-c2cccc(-c3nc(-c4ccc(C(F)(F)F)c(OCC(F)(F)F)c4)cc(C(F)(F)F)n3)c2)cn1 [Example 133, 5-(3-{4-[3-(2,2,2-Trifluoro-ethoxy)-4-trifluoromethyl-phenyl]-6-trifluoromethyl-pyrimidin-2-yl}-phenyl)-pyridin-2-ylamine]",220 °C
7,"Cc1cc(-c2cc(C(F)(F)F)nc(-c3cccc(-c4cccc(S(N)(=O)=O)c4)c3)n2)ccc1C(F)(F)F [Example 206, 3′-[4-(3-Methyl-4-trifluoromethyl-phenyl)-6-trifluoromethyl-pyrimidin-2-yl]-biphenyl-3-sulfonic acid amide]",205 °C
8,"NS(=O)(=O)c1cccc(-c2cc(-c3nc(-c4ccc(F)cc4)cc(C(F)(F)F)n3)ccn2)c1 [Example 398, 3-{4-[4-(4-Fluoro-phenyl)-6-trifluoromethyl-pyrimidin-2-yl]-pyridin-2-yl}-benzenesulfonamide]",239.5 °C
9,"Cc1cc(-c2cc(C(F)(F)F)nc(-c3cccc(-c4cnc(N)nc4)c3)n2)ccc1C(F)(F)F [Example 124, 5-{3-[4-(3-Methyl-4-trifluoromethyl-phenyl)-6-trifluoromethyl-pyrimidin-2-yl]-phenyl}-pyrimidin-2-ylamine]",244 °C
10,"Cc1cc(-c2ccc(C(F)(F)F)cc2)cc(-c2cccc(-c3cccc(S(=O)(=O)N4CCC(O)CC4)c3)n2)n1 [Example 427, 1-{3-[6′-Methyl-4′-(4-trifluoromethyl-phenyl)-[2,2′]bipyridinyl-6-yl]-benzenesulfonyl}-piperidin-4-ol]",195 °C
11,"NS(=O)(=O)c1ccc(-c2cn(-c3nc(-c4ccc(Cl)c(Cl)c4)cc(C(F)(F)F)n3)cn2)s1 [Example 208, 5-{1-[4-(3,4-Dichloro-phenyl)-6-trifluoromethyl-pyrimidin-2-yl]-1H-imidazol-4-yl}-thiophene-2-sulfonic acid amide]",282 °C (dec.)
12,"Cc1nc(-c2cnc(N)nc2)cn1-c1nc(-c2ccc(C(F)(F)F)cc2)cc(C(F)(F)F)n1 [Example 143, 5-{2-Methyl-1-[4-trifluoromethyl-6-(4-trifluoromethyl-phenyl)-pyrimidin-2-yl]-1H-imidazol-4-yl}-pyrimidin-2-ylamine]",286.5 °C
13,"Cc1cc(-c2ccc(C(F)(F)F)cc2)nc(-c2cccc(-c3ccc(S(N)(=O)=O)s3)c2)c1 [Example 273, 5-{3-[4-Methyl-6-(4-trifluoromethyl-phenyl)-pyridin-2-yl]-phenyl}-thiophene-2-sulfonic acid amide]",211 °C
14,"Cc1cc(-c2ccc(Cl)cc2)nc(-n2cnc(-c3ccc(S(N)(=O)=O)cc3)c2)n1 [Example 180, 4-{1-[4-(4-Chloro-phenyl)-6-methyl-pyrimidin-2-yl]-1H-imidazol-4-yl}-benzenesulfonamide]",312 °C
15,"Cc1cc(-c2ccc(Cl)cc2)nc(-n2cnc(-c3cnc(N)nc3)c2)n1 [Example 45, 5-{1-[4-(4-Chloro-phenyl)-6-methyl-pyrimidin-2-yl]-1H-imidazol-4-yl}-pyrimidin-2-ylamine]",264 to 266 °C
16,"Cc1cc(-c2ccc(C(F)(F)F)cc2)cc(-c2cccc(-c3ccnc(N)c3)n2)n1 [Example 358, 6-Methyl-4-(4-trifluoromethyl-phenyl)-[2,2′;6′,4″]terpyridin-2″-ylamine]",160 °C
17,"Nc1ccc(-c2nccc(-c3nc(-c4ccc(C(F)(F)F)cc4)cc(C(F)(F)F)n3)n2)cn1 [Example 101, 5-[6-Trifluoromethyl-4-(4-trifluoromethyl-phenyl)-[2,4′]bipyrimidinyl-2′-yl]-pyridin-2-ylamine]",236.5 °C
